Legend:
[1] = tested on: neonatal rat pancreatic islets; assay: IL-1β-induced nitric oxide production (nitrite, Griess reagent); type: cell-based; conditions: nitrites in supernatants of the apoptosis experiments, four independent experiments
Procedure: (§1) For cell death detection, rat islets were incubated with 150 pg/ml IL-1β (BD Pharmingen, San Diego, CA, USA) alone or in combination with various concentrations of Ana and Ilantide for 24 hours at 37°C in humidified atmospheric air. Rat islet cell death was assessed by cell death detection ELISA (Roche, Lund, Sweden) as previously described. As a surrogate measure of nitric oxide production, Griess reagent (1:1 aqueous mixture of 0.1% naphthylethylenediamine hydrochloride and 1% sulfanilamide + 5% H3PO4) was mixed in a 1:1 ratio with 100 μl of supernatant samples to determine the nitrite content in supernatants from the cell death assays described above.
Figure 8 Effect of Ilantide on interleukin 1β-induced nitric oxide production. Anakinra (A) but none of the peptides, Ilantide-m (B) or Ilantide-t (C), inhibited interleukin 1β (IL-1β)-induced nitric oxide production. The results of four independent experiments are shown. *P < 0.05 and **P < 0.01 compared with cultures treated with IL-1 alone (one-way analysis of variance followed by Dunnett’s post hoc test).

[2] = tested on: neonatal rat pancreatic islets; assay: IL-1β-induced rat islet cell apoptosis (cell death detection ELISA); type: cell-based; conditions: rat islets, 8.68 nM (150 pg/ml) IL-1β, 24 hours
Procedure: Neonatal rat islets were isolated from 3- to 6-day-old outbred Wistar rats (Taconic, Ejby, Denmark) as previously described. Islets were precultured and maintained in RPMI 1640 medium (Gibco/Life Technologies) supplemented with 20 mmol/L HEPES buffer, 0.038% (wt/vol) NaHCO3, 100 U/ml penicillin, 100 µg/ml streptomycin and 10% (vol/vol) newborn calf serum (NCS) at 37°C in humidified atmospheric air. Prior to experimentation, the islets were randomly distributed to 24-well dishes and incubated for 2 hours in RPMI 1640 medium supplemented as described above, but with 0.5% (vol/vol) NCS relevant reagents were added as indicated.
as §1
Figure 7 Effect of Ilantide on interleukin 1β-induced rat islet cell apoptosis. Rat pancreatic islets were preincubated for 30 minutes in the absence or presence of various concentrations of anakinra (A), Ilantide-m (B) or Ilantide-t (C) and then exposed to […] interleukin 1β (IL-1β) for 24 hours. Cytokine-induced apoptosis was determined by cell death detection enzyme-linked immunosorbent assay. Apoptosis rates are presented as fold induction compared with untreated control islets (white bars). The data from four independent experiments are presented as mean ± SEM. *P < 0.05 and **P < 0.01 compared with cultures treated with IL-1β alone (one-way analysis of variance followed by Dunnett’s post hoc test).

[3] = tested on: LPS-induced neuroinflammation; assay: Lipopolysaccharide-induced impairment of social behavior; type: in vivo; conditions: rat, Ana 100 mg/kg s.c.
Procedure: The peripheral administration of LPS, the active fragment of bacterial endotoxin, results in an increase in the plasma levels of all proinflammatory cytokines and behavioral depression. LPS-induced behavioral depression was assessed by measuring the reduction of the duration of social interaction during 4-minute sessions. Six- to seven-week-old rats were handled for five days, habituated to the test cages and the experiment room and trained for social interaction with three-week-old juvenile rats introduced into the test cage for four minutes two days before the actual experiment. On the day of the experiment, the rats were intraperitoneally injected (i.p.) with saline or LPS (Escherichia coli 0111:B4; Sigma-Aldrich) dissolved in saline (250 μg/kg). Immediately after the i.p. injection, Ilantide-t (Ila; 10 mg/kg, equivalent to 2.1 μmol/kg), Ana ([…], equivalent to 5.8 μmol/kg) or saline was injected subcutaneously. The volume of all of the injections was 1.0 ml/kg. Six experimental groups were used: vehicle i.p./vehicle s.c. (veh/veh; n = 10), vehicle i.p./Ilantide-t s.c. (veh/Ila; n = 8), vehicle i.p./Ana s.c. (veh/Ana; n = 9), LPS i.p./vehicle s.c. (LPS/veh; n = 10), LPS i.p./Ilantide-t s.c. (LPS/Ila; n = 11) and LPS i.p./Ana s.c. (LPS/Ana; n = 11). The injections and weighing of the rats were performed immediately after the first test session (0 h), and the animals were tested and weighed again 2, 4, 6, 8, and 24 hours later. Different juvenile animals were presented on each occasion. Social interaction consisted of anogenital sniffing, licking and chewing the fur of the juveniles by the experimental animals and was monitored with a video camera. […] The duration of social interaction at each time point is expressed as the percentage of baseline values and was averaged for each experimental group. Social interaction was scored by an observer who was blinded to the treatment of the animals. For evaluation of levels of pro- and anti-inflammatory cytokines in blood, rats were injected with LPS and then immediately with either vehicle (n = 8) or Ilantide-t (n = 8) as described above. In addition, a control group of animals (n = 4) was treated with Ilantide-t alone (control). Blood samples were collected at 0, 2 and 6 hours after injections as described for the pharmacokinetics study and stored at -20°C until use. The levels of IL-6, IFN-γ and IL-10 were determined using corresponding rat ELISA kits according to the manufacturer’s protocols (all from BD Biosciences, San Diego, CA, USA).

Substance: Ana: recombinantly produced N-terminal methionylated, nonglycosylated version of human IL-1Ra [reference compound]
- Inhibition of IL-1β-induced nitric oxide production [1]: inhibited
- Concentration giving maximal inhibition of IL-1β-induced apoptosis [2]: 86.8 µM
- Maximal inhibition of IL-1β-induced apoptosis ([2]; 30 minutes preincubation, four independent experiments): 64%
- Effect on LPS-induced body weight decrease ([3]; 24 hours after LPS 250 μg/kg i.p., Ilantide-t 10 mg/kg, P < 0.05): attenuated the anorexigenic effect of LPS
- Social behavior per se (without LPS) ([3]; Ilantide-t 10 mg/kg s.c., vehicle i.p.): did not modify social behavior per se
- Effect on LPS-induced depression of social activity (sickness behavior) ([3]; LPS 250 μg/kg i.p., Ilantide-t 10 mg/kg s.c., 2 to 24 hours): No significant effect
